Like-named read-outs stand apart in the source and are kept apart here.
Assays:
Assay type in all cases: cell-based, human
MDA-MB-231 cells = assay: Cell proliferation experiment, MDA-MB-231
Procedure: (§1) Reagents: RPMI-1640 medium, McCoy's 5A medium, IMDM medium, MEM medium, L-15 medium, fetal bovine serum. Penicillin-Streptomycin double antibody, trypsin, etc., 2-mercaptoethanol, NEAA, pyruvate, etc.
(§2) The cells were cultured in conventional ways, and the cells should be passed at least 2 generations before plating. Cells at the logarithmic growth phase were collected, prepared into single cell suspensions and counted. The concentration of cells was adjusted to the desired concentration, and cells were inoculated into a 96-well cell culture plate at 100 μl per well. 100 μL of complete medium of the test compound were added to each well, set up 2 duplicate wells for each concentration, and diluted with a 5-fold gradient, and continued to culture for 72 h. All cells were subjected to IC50 test for corresponding samples. The experimental results are shown in Test Example 4.
(§3) The fluorescence intensity of each well was detected using the Alarm blue method, and IC50 was calculated.
(§4) IC50 was calculated according to the following formula:
(§5) Y=Max+(Min−Max)/[1+(X/IC50)×Slope]
(§6) wherein Min, Max and Slope represent the minimum, maximum and slope respectively.

Daudi cells = assay: Cell proliferation experiment, Daudi; settings: Homo sapiens, Daudi, read-out: Inhibitory activity IC50 on Daudi
Procedure: as §1, §2, §3, §4, §5, §6

MV4;11 cells = assay: Cell proliferation experiment (Alamar blue, 72 h), MV4;11; settings: Homo sapiens
Procedure: as §1, §2, §3, §4, §5, §6

NCIH82 cells = assay: Cell proliferation experiment, NCI-H82; settings: Homo sapiens, NCI-H82, NCI-H82 cells; read-out: Inhibitory activity IC50 on NCI-H82
Procedure: as §1, §2, §3, §4, §5, §6

PC-3 = assay: Cell proliferation experiment, PC-3; settings: read-out: Inhibitory activity IC50 on PC-3
Procedure: as §1, §2, §3, §4, §5, §6

[1] = Homo sapiens, MDA-MB-231, MDA-MB-231 cells, read-out: Inhibitory activity IC50 on MDA-MB-231
[2] = MV4-11, MV4;11 cells, read-out: Inhibitory activity IC50 on MV4;11

Row | Structure (SMILES) | IC50 (NCIH82 cells) [nM] | IC50 (MDA-MB-231 cells; [1]) [nM] | IC50 (Daudi cells; Daudi cells) [nM] | IC50 (MV4;11 cells; [2]) [nM] | IC50 (PC-3; Homo sapiens, PC-3, PC-3 cells) [nM] | other results
1 | CC[C@@H]1C(=O)N(C)c2cnc(Nc3ccc(C(=O)NCCCOCCCN(CCC#Cc4cccc5c4CN(C4CCC(=O)NC4=O)C5=O)C(=O)OC(C)C(C)SSC[C@@H](NC(=O)[C@@H](CC(=O)O)NC(=O)[C@@H](CC(=O)O)NC(=O)[C@@H](CCCNC(=N)N)NC(=O)[C@@H](CC(=O)O)NC(=O)CC[C@H](NC(=O)c4ccc(NCc5cnc6nc(N)[nH]c(=O)c6n5)cc4)C(=O)O)C(=O)O)cc3OC)nc2N1C1CCCC1 (stereo partly shown) [UB-180939] |  |  |  |  |  | IC50 (MDA-MB-231 cells; Homo sapiens, MDA-MB-231, read-out: Inhibitory activity IC50 on MDA-MB-231): > 1000 nM; IC50 (Daudi cells): 100 to 1000 nM; IC50 (MV4;11 cells; MV4-11, read-out: Inhibitory activity IC50 on MV4;11): 10 to 100 nM
2 | O=C1CCC(N2Cc3cc(NC(=O)CCCCCCCCCNCCn4cc(-c5ccc(Nc6ncc7c(n6)-c6ccc(Cl)cc6C(c6c(F)cccc6F)=NC7)cc5)nn4)ccc3C2=O)C(=O)N1 (stereo not shown) [UB-180986] | 100 to 1000 | > 1000 | 100 to 1000 | 10 to 100 |  | 
3 | CC[C@@H]1C(=O)N(C)c2cnc(Nc3ccc(-c4cn([C@H]5CC[C@@H](NCCOCCCC#Cc6cccc7c6CN(C6CCC(=O)NC6=O)C7=O)CC5)nn4)cc3OC)nc2N1C1CCCC1 (stereo partly shown) [UB-180992] |  | 10 to 100 | 10 to 100 | < 10 |  | 
4 | CC[C@@H]1C(=O)N(C)c2cnc(Nc3ccc(-c4cn([C@H]5CC[C@@H](NCCCOCCC#Cc6cccc7c6CN(C6CCC(=O)NC6=O)C7=O)CC5)nn4)cc3OC)nc2N1C1CCCC1 (stereo partly shown) [UB-180998] |  | 10 to 100 | 10 to 100 | < 10 |  | 
5 | CC[C@@H]1C(=O)N(C)c2cnc(Nc3ccc(-c4cn([C@H]5CC[C@@H](NCCOCCC#Cc6cccc7c6CN(C6CCC(=O)NC6=O)C7=O)CC5)nn4)nc3)nc2N1C1CCCC1 (stereo partly shown) [UB-181153] |  | 100 to 1000 |  | 10 to 100 | 100 to 1000 | 
6 | O=C1CCC(N2Cc3cc(NC(=O)CCOCCOCCOCCn4cc(-c5ccc(Nc6ncc7c(n6)-c6ccc(Cl)cc6C(c6c(F)cccc6F)=NC7)cc5)nn4)ccc3C2=O)C(=O)N1 (stereo not shown) [UB-180950] | 100 to 1000 | > 1000 | 100 to 1000 | < 10 |  | 
7 | O=C1CCC(N2Cc3cc(NC(=O)CCOCCOCCOCCN[C@H]4CC[C@@H](n5cc(-c6ccc(Nc7ncc8c(n7)-c7ccc(Cl)cc7C(c7c(F)cccc7F)=NC8)cc6)nn5)CC4)ccc3C2=O)C(=O)N1 (stereo partly shown) [UB- 180980] | > 1000 | > 1000 | 100 to 1000 | < 10 |  | 
8 | CC[C@@H]1C(=O)N(C)c2cnc(Nc3ccc(-c4cn([C@H]5CC[C@@H](NCCCOCCC#Cc6ccc7c(c6)CN(C6CCC(=O)NC6=O)C7=O)CC5)nn4)cc3OC)nc2N1C1CCCC1 (stereo partly shown) [UB-180999] |  | 10 to 100 | 10 to 100 | < 10 |  | 
9 | CC[C@@H]1C(=O)N(C)c2cnc(Nc3ccc(-c4cn([C@H]5CC[C@@H](NCCOCCC#Cc6ccc7c(c6)CN(C6CCC(=O)NC6=O)C7=O)CC5)nn4)cc3OC)nc2N1C1CCCC1 (stereo partly shown) [UB-181004] |  | 10 to 100 | 10 to 100 | < 10 |  | 
10 | CC[C@@H]1C(=O)N(C)c2cnc(Nc3ccc(-c4cn(CCCCCCNCCC#Cc5cccc6c5CN(C5CCC(=O)NC5=O)C6=O)nn4)cc3OC)nc2N1C1CCCC1 (stereo partly shown) [UB-180949] |  | 10 to 100 | 10 to 100 | < 10 |  | 
11 | CC[C@@H]1C(=O)N(C)c2cnc(Nc3ccc(-c4cn([C@H]5CC[C@@H](NCCCCCC#Cc6cccc7c6CN(C6CCC(=O)NC6=O)C7=O)CC5)nn4)cc3OC)nc2N1C1CCCC1 (stereo partly shown) [UB-180977] |  | < 10 | 10 to 100 | < 10 |  | 
12 | CC[C@@H]1C(=O)N(C)c2cnc(Nc3ccc(-c4cn([C@H]5CC[C@@H](N(C)CCOCCC#Cc6cccc7c6CN(C6CCC(=O)NC6=O)C7=O)CC5)nn4)cc3OC)nc2N1C1CCCC1 (stereo partly shown) [UB-181045] |  | < 10 |  | < 10 | 100 to 1000 | 
13 | CC[C@@H]1C(=O)N(C)c2cnc(Nc3ccc(C(=O)N[C@H]4CC[C@@H](NCCOCCC#Cc5cccc6c5CN([C@H]5CCC(=O)NC5=O)C6=O)CC4)cc3)nc2N1C1CCCC1 [UB-181179] |  |  |  |  |  | IC50 (PC-3; PC-3 cells): 10 to 100 nM; IC50 (MDA-MB-231 cells; MDA-MB-231 cells, read-out: Inhibitory activity IC50 on MDA-MB-231): 10 to 100 nM
14 | CC[C@@H]1C(=O)N(C)c2cnc(Nc3ccc(C(=O)N[C@H]4CC[C@@H](NCCCCCC#Cc5cccc6c5CN(C5CCC(=O)NC5=O)C6=O)CC4)cc3OC)nc2N1C1CCCC1 (stereo partly shown) [UB-180978] |  | < 10 | 10 to 100 | < 10 |  | 
15 | NC(=O)c1ccccc1Nc1nc(Nc2ccc(C3CCN(C(=O)N[C@H]4CC[C@@H](NCCC#Cc5cccc6c5CN(C5CCC(=O)NC5=O)C6=O)CC4)CC3)cc2)ncc1Cl (stereo partly shown) [UB-181183] | 10 to 100 |  | 10 to 100 | < 10 | 10 to 100 | 
16 | CC[C@@H]1C(=O)N(C)c2cnc(Nc3ccc(C(=O)N[C@H]4CC[C@@H](NC5CCN(CCC#Cc6cccc7c6CN(C6CCC(=O)NC6=O)C7=O)CC5)CC4)cc3OC)nc2N1C1CCCC1 (stereo partly shown) [UB-180934] |  | 100 to 1000 | 10 to 100 | 10 to 100 |  | IC50 (MV4;11 cells; MV4-11, 72 h, MV4;11 cells, 72 h, read-out: Inhibitory activity IC50 of tested compounds on MV4;11 cells): ≤ 100 nM
17 | CC[C@@H]1C(=O)N(C)c2cnc(Nc3ccc(NC(=O)N[C@H]4CC[C@H](NCCOCCC#Cc5cccc6c5CN(C5CCC(=O)NC5=O)C6=O)CC4)cc3OC)nc2N1C1CCCC1 (stereo partly shown) [UB-181130] |  | 100 to 1000 |  | < 10 | 100 to 1000 | 
18 | CC[C@@H]1C(=O)N(C)c2cnc(Nc3ccc(-c4cn([C@H]5CC[C@@H](N(CCOCCC#Cc6cccc7c6CN(C6CCC(=O)NC6=O)C7=O)C(=O)CO)CC5)nn4)cc3OC)nc2N1C1CCCC1 (stereo partly shown) [UB-181063] |  | 100 to 1000 |  | < 10 | 100 to 1000 | 
19 | NC(=O)c1ccccc1Nc1nc(Nc2ccc(C3CCN(C(=O)NC4CCN(C5CN(CCC#Cc6ccc7c(c6)CN(C6CCC(=O)NC6=O)C7=O)C5)CC4)CC3)cc2)ncc1Cl (stereo not shown) [UB-181199] | < 10 |  | 10 to 100 |  | 10 to 100 | 
20 | NC(=O)c1ccccc1Nc1nc(Nc2ccc(C3CCN(C(=O)N[C@H]4CC[C@@H](NCCCCOCCC#Cc5ccc6c(c5)CN(C5CCC(=O)NC5=O)C6=O)CC4)CC3)cc2)ncc1Cl (stereo partly shown) [UB-181205] | 100 to 1000 |  | 100 to 1000 |  | 100 to 1000 | 
21 | CC[C@@H]1C(=O)N(C)c2cnc(Nc3ccc(-c4cn([C@H]5CC[C@@H](NCCOCCCC#Cc6ccc7c(c6)CN(C6CCC(=O)NC6=O)C7=O)CC5)nn4)cc3OC)nc2N1C1CCCC1 (stereo partly shown) [UB-180993] |  | 10 to 100 | 10 to 100 | 10 to 100 |  | 
22 | CC[C@@H]1C(=O)N(C)c2cnc(Nc3ccc(-c4cn([C@H]5CC[C@@H](N(CCOCCC#Cc6cccc7c6CN(C6CCC(=O)NC6=O)C7=O)C(=O)OC(C)C(C)SSC[C@@H](NC(=O)[C@@H](CC(=O)O)NC(=O)[C@@H](CC(=O)O)NC(=O)[C@@H](CCCNC(=N)N)NC(=O)[C@@H](CC(=O)O)NC(=O)CC[C@H](NC(=O)c6ccc(NCc7cnc8nc(N)[nH]c(=O)c8n7)cc6)C(=O)O)C(=O)O)CC5)nn4)cc3OC)nc2N1C1CCCC1 (stereo partly shown) [UB-180979] |  | 100 to 1000 | 10 to 100 | 10 to 100 |  | 
23 | NC(=O)c1ccccc1Nc1nc(Nc2ccc(N3CCN(C(=O)N[C@H]4CC[C@@H](NCC(O)CC#Cc5ccc6c(c5)CN(C5CCC(=O)NC5=O)C6=O)CC4)CC3)cc2)ncc1Cl (stereo partly shown) [UB-181203] | 100 to 1000 |  | 100 to 1000 |  | 100 to 1000 | 
24 | CC[C@@H]1C(=O)N(C)c2cnc(Nc3ccc(-c4cn([C@H]5CC[C@@H](N(CCO)CCOCCC#Cc6cccc7c6CN(C6CCC(=O)NC6=O)C7=O)CC5)nn4)cc3OC)nc2N1C1CCCC1 (stereo partly shown) [UB-181052] |  | 100 to 1000 |  | 10 to 100 | < 10 | 
25 | CC[C@@H]1C(=O)N(C)c2cnc(Nc3ccc(-c4cn([C@H]5CC[C@@H](NCCCOCC#Cc6cccc7c6CN(C6CCC(=O)NC6=O)C7=O)CC5)nn4)cc3OC)nc2N1C1CCCC1 (stereo partly shown) [UB-181089] |  | 10 to 100 |  | 10 to 100 | 10 to 100 | 
26 | O=C1CCC(N2Cc3c(C#CCCNCCOCCOCCOCCn4cc(-c5ccc(Nc6ncc7c(n6)-c6ccc(Cl)cc6C(c6c(F)cccc6F)=NC7)cc5)nn4)cccc3C2=O)C(=O)N1 (stereo not shown) [UB-180974] | > 1000 |  | > 1000 | 100 to 1000 |  | 
27 | O=C1CCC(N2Cc3c(C#CCCNCCOCCOCCNC(=O)[C@]4(Cc5cccc(Nc6nccs6)n5)CC[C@@H](Oc5cccc(Cl)c5F)CC4)cccc3C2=O)C(=O)N1 (stereo partly shown) [UB-181014] | > 1000 |  | > 1000 | 100 to 1000 |  | 
28 | O=C1CCC(N2Cc3cc(NC(=O)CNCCCCOCCCCn4cc(-c5ccc(Nc6ncc7c(n6)-c6ccc(Cl)cc6C(c6c(F)cccc6F)=NC7)cc5)nn4)ccc3C2=O)C(=O)N1 (stereo not shown) [UB-181011] | > 1000 |  | 10 to 100 | 100 to 1000 |  | 
29 | CCNC(=O)C#Cc1ccc2c(c1)NC(=O)/C2=C(\Nc1ccc(CNCCOCCOCCOCCOCC(=O)N[C@H](C(=O)N2C[C@H](O)C[C@H]2C(=O)NCc2ccc(-c3scnc3C)cc2)C(C)(C)C)cc1)c1ccccc1 [UB-180958] | > 1000 |  | > 1000 | 100 to 1000 |  | 

Source: patent publication US20230210999A1, “TARGETED PROTEASE DEGRADATION (TED) PLATFORM” (EUBULUS BIOTHERAPEUTICS INC., priority 2020, published 2023)
